According to US4656180A, “Diamine derivatives and pharmaceutical preparations containing these compounds” (Ludwig Heumann & Co., GmbH, priority 1984, dated 1987):

Experiments:
[1] = therapeutic use; several daily doses of tablets required; cited from earlier work
histamine-H2 receptors = target: T1, histamine-H2 receptors (Cavia porcellus, UniProt P47747); experiment: pA2-values in vitro on isolated guinea-pigs' atrium (H2-antagonistic activity); parameters: species or system guinea-pig
T1 construct: in vitro on isolated guinea-pigs' atrium; from tissue; host or cells: isolated guinea-pig atrium (right atrium per b6)
Source text: J. Pharmacol. Chemother. ", 27, 427 (1966) and Black et al, "Nature", 236, 385 (1971)].
One recognized method of determining the H2 -antagonistic activity is the determination of the pA2 -values in vitro on isolated guinea-pigs' atrium (see Ariens, Molecular Pharmacology, Volume 1, Academic Press, New York, 1964).

T1 sequence (P47747 whole entry): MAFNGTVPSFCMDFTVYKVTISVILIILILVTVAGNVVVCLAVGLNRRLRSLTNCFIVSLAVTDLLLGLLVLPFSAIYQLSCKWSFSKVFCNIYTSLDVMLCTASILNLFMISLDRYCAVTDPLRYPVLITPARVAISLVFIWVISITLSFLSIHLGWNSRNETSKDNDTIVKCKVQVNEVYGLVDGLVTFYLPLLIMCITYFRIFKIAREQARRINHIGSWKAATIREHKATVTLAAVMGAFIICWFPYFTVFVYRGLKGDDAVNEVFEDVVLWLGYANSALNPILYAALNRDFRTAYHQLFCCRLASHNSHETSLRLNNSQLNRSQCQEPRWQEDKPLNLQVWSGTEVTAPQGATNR

Kb (histamine-H2 receptors) [nM]	SMILES	half life [1]
–	CN/C(=N/CCSCc1nc[nH]c1C)NC#N [Cimetidine]	relatively short half life
7.24	[O-][s+]1nc(NCC(O)COc2cccc(CN3CCCCC3)c2)c(NCC(O)COc2cccc(CN3CCCCC3)c2)n1 (stereo not drawn) [Example 4]	–
–	CNC(=C[N+](=O)[O-])NCCSCc1ccc(CN(C)C)o1 [ranitidine]	relatively short half life
